{"source": "paper PMC5559489", "about": "(Scientific Reports, 2017)", "origin": "cited, not measured here", "key": {"[1]": {"system": "A(H1N1)pdm2009 clinical isolates with H275Y mutation", "details": "cited from earlier work"}, "[2]": {"system": "A(H1N1)pdm09 isolates containing NA H275Y and I223R", "details": "cited from earlier work"}}}
{"smiles": "CCOC(=O)C1=C[C@@H](OC(CC)CC)[C@H](NC(C)=O)[C@@H](N)C1", "note": "[oseltamivir, Oseltamivir]", "values": [{"measurement": "decrease of sensitivity compared to wild-type", "setting": "[1]", "result": 1466, "unit": "fold"}, {"measurement": "decreased susceptibility to oseltamivir", "setting": "[2]", "result": 246, "unit": "fold"}]}
